PubChem BioAssay (NCI)
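Dose response: 5 concentrations. Exposure: 48 h. Format: 96-well plates. Endpoint: linear interpolation; highest concentration if not reached. Abbreviation: GI50, concentration required for 50% inhibition of growth. TGI is the concentration that stops growth completely.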

What follows are molecules tested on EKVX NSCLC (assay: NCI anticancer screen, dose series, 48 h).

Row | SMILES | TGI [µM]
1 | Cc1c2c(C(N)=O)nccc2c(C)c2c1c1ccccc1n2Cc1ccccc1 | > 100

These molecules were tested on U251 CNS (assay: NCI anticancer screen, dose series, 48 h).

Row | SMILES | GI50 [µM] | TGI [µM]
2 | Cc1noc2c1-c1ccccc1C(c1ccc(Cl)cc1)=N[C@H]2CC(N)=O | 20 | > 100
3 | NCCCOc1cc(Cl)ccc1NC(=O)c1cc2ccccc2cc1OCCCN | 1.71 | 3.24
4 | Cc1sc2c(c1C)C(c1ccc(Cl)cc1)=N[C@@H](CC(=O)Nc1ccc(OCCOCCOCCOCCNc3cccc4c3C(=O)N(C3CCC(=O)NC3=O)C4=O)cc1)c1nnc(C)n1-2 (some centres undefined) | 0.476 | > 100
5 | NCCCOc1cc2ccccc2cc1C(=O)NCCCOc1cc2ccccc2cc1C(=O)Nc1ccc(Cl)cc1O | 0.187 | 0.35
6 | COc1cc(/C=C/C(=O)C(C(=O)/C=C/c2ccc(OC(=O)CCNC34CC5CC(CC(C5)C3)C4)c(OC)c2)C(=O)CCNC23CC4CC(CC(C4)C2)C3)ccc1OC(=O)CCNC12CC3CC(CC(C3)C1)C2 (centres undefined) | 3.25 | 11.3
7 | CCOC(=O)C1=C(N)Oc2c(sc3c(C)cccc23)C1c1ccc(F)cc1 (centres undefined) | 0.58 | 17
8 | NC(N)=N/N=C(\N=Nc1ccccc1)c1ccc(Cl)cc1 | 2.39 | 7.55
9 | Cc1cc(NCCCCNc2ccnc3cc(Cl)ccc23)nc(Nc2ccc(C(=O)N3CCCCC3)cc2)n1 | 1.78 | 3.56
10 | Cc1c2c(C(N)=O)nccc2c(C)c2c1c1ccccc1n2Cc1ccccc1 |  | 24.9

Each molecule was assayed on 786-0 renal (assay: NCI anticancer screen, dose series, 48 h).

Row | SMILES | GI50 [µM] | TGI [µM]
11 | Cc1noc2c1-c1ccccc1C(c1ccc(Cl)cc1)=N[C@H]2CC(N)=O | 10.9 | > 100
12 | NCCCOc1cc(Cl)ccc1NC(=O)c1cc2ccccc2cc1OCCCN | 1.62 | 3.08
13 | Cc1sc2c(c1C)C(c1ccc(Cl)cc1)=N[C@@H](CC(=O)Nc1ccc(OCCOCCOCCOCCNc3cccc4c3C(=O)N(C3CCC(=O)NC3=O)C4=O)cc1)c1nnc(C)n1-2 (some centres undefined) |  | > 100
14 | NCCCOc1cc2ccccc2cc1C(=O)NCCCOc1cc2ccccc2cc1C(=O)Nc1ccc(Cl)cc1O | 0.199 | 0.441
15 | COc1cc(/C=C/C(=O)C(C(=O)/C=C/c2ccc(OC(=O)CCNC34CC5CC(CC(C5)C3)C4)c(OC)c2)C(=O)CCNC23CC4CC(CC(C4)C2)C3)ccc1OC(=O)CCNC12CC3CC(CC(C3)C1)C2 (centres undefined) | 4.19 | > 100
16 | CCOC(=O)C1=C(N)Oc2c(sc3c(C)cccc23)C1c1ccc(F)cc1 (centres undefined) | 1.25 | 17.9
17 | NC(N)=N/N=C(\N=Nc1ccccc1)c1ccc(Cl)cc1 | 2.03 | 8.36
18 | Cc1cc(NCCCCNc2ccnc3cc(Cl)ccc23)nc(Nc2ccc(C(=O)N3CCCCC3)cc2)n1 | 1.42 | 2.97
19 | Cc1c2c(C(N)=O)nccc2c(C)c2c1c1ccccc1n2Cc1ccccc1 |  | 15.9

The molecules below were run on MCF7 breast (assay: NCI anticancer screen, dose series, 48 h).

Row | SMILES | GI50 [µM] | TGI [µM]
20 | Cc1noc2c1-c1ccccc1C(c1ccc(Cl)cc1)=N[C@H]2CC(N)=O | 0.732 | > 100
21 | NCCCOc1cc(Cl)ccc1NC(=O)c1cc2ccccc2cc1OCCCN | 1.62 | 3.07
22 | Cc1sc2c(c1C)C(c1ccc(Cl)cc1)=N[C@@H](CC(=O)Nc1ccc(OCCOCCOCCOCCNc3cccc4c3C(=O)N(C3CCC(=O)NC3=O)C4=O)cc1)c1nnc(C)n1-2 (some centres undefined) | < 0.0166 | > 100
23 | NCCCOc1cc2ccccc2cc1C(=O)NCCCOc1cc2ccccc2cc1C(=O)Nc1ccc(Cl)cc1O | 0.183 | 0.349
24 | COc1cc(/C=C/C(=O)C(C(=O)/C=C/c2ccc(OC(=O)CCNC34CC5CC(CC(C5)C3)C4)c(OC)c2)C(=O)CCNC23CC4CC(CC(C4)C2)C3)ccc1OC(=O)CCNC12CC3CC(CC(C3)C1)C2 (centres undefined) | 1.97 | 6.28
25 | CCOC(=O)C1=C(N)Oc2c(sc3c(C)cccc23)C1c1ccc(F)cc1 (centres undefined) | 0.47 | 11.4
26 | NC(N)=N/N=C(\N=Nc1ccccc1)c1ccc(Cl)cc1 | 2.43 | 14.2
27 | Cc1cc(NCCCCNc2ccnc3cc(Cl)ccc23)nc(Nc2ccc(C(=O)N3CCCCC3)cc2)n1 | 1.48 | 4.34
28 | Cc1c2c(C(N)=O)nccc2c(C)c2c1c1ccccc1n2Cc1ccccc1 |  | > 100

These molecules were tested on SNB-75 CNS (assay: NCI anticancer screen, dose series, 48 h).

Row | SMILES | GI50 [µM] | TGI [µM]
29 | Cc1noc2c1-c1ccccc1C(c1ccc(Cl)cc1)=N[C@H]2CC(N)=O | 0.134 | > 100
30 | NCCCOc1cc(Cl)ccc1NC(=O)c1cc2ccccc2cc1OCCCN | 1.23 | 2.5
31 | Cc1sc2c(c1C)C(c1ccc(Cl)cc1)=N[C@@H](CC(=O)Nc1ccc(OCCOCCOCCOCCNc3cccc4c3C(=O)N(C3CCC(=O)NC3=O)C4=O)cc1)c1nnc(C)n1-2 (some centres undefined) | < 0.01 | 
32 | NCCCOc1cc2ccccc2cc1C(=O)NCCCOc1cc2ccccc2cc1C(=O)Nc1ccc(Cl)cc1O | 0.455 | 1.02
33 | COc1cc(/C=C/C(=O)C(C(=O)/C=C/c2ccc(OC(=O)CCNC34CC5CC(CC(C5)C3)C4)c(OC)c2)C(=O)CCNC23CC4CC(CC(C4)C2)C3)ccc1OC(=O)CCNC12CC3CC(CC(C3)C1)C2 (centres undefined) | 4.86 | 33.3
34 | CCOC(=O)C1=C(N)Oc2c(sc3c(C)cccc23)C1c1ccc(F)cc1 (centres undefined) | 0.265 | 11.7
35 | NC(N)=N/N=C(\N=Nc1ccccc1)c1ccc(Cl)cc1 | 4.67 | 17.8
36 | Cc1cc(NCCCCNc2ccnc3cc(Cl)ccc23)nc(Nc2ccc(C(=O)N3CCCCC3)cc2)n1 | 1.72 | 3.29
37 | Cc1c2c(C(N)=O)nccc2c(C)c2c1c1ccccc1n2Cc1ccccc1 |  | 39.9

What follows are molecules tested on TK-10 renal (assay: NCI anticancer screen, dose series, 48 h).

Row | SMILES | GI50 [µM] | TGI [µM]
38 | Cc1noc2c1-c1ccccc1C(c1ccc(Cl)cc1)=N[C@H]2CC(N)=O | 0.486 | > 100
39 | NCCCOc1cc(Cl)ccc1NC(=O)c1cc2ccccc2cc1OCCCN | 1.73 | 3.38
40 | Cc1sc2c(c1C)C(c1ccc(Cl)cc1)=N[C@@H](CC(=O)Nc1ccc(OCCOCCOCCOCCNc3cccc4c3C(=O)N(C3CCC(=O)NC3=O)C4=O)cc1)c1nnc(C)n1-2 (some centres undefined) | 0.189 | > 43.7
41 | NCCCOc1cc2ccccc2cc1C(=O)NCCCOc1cc2ccccc2cc1C(=O)Nc1ccc(Cl)cc1O | 0.583 | 1.26
42 | COc1cc(/C=C/C(=O)C(C(=O)/C=C/c2ccc(OC(=O)CCNC34CC5CC(CC(C5)C3)C4)c(OC)c2)C(=O)CCNC23CC4CC(CC(C4)C2)C3)ccc1OC(=O)CCNC12CC3CC(CC(C3)C1)C2 (centres undefined) | 3.77 | 18.7
43 | CCOC(=O)C1=C(N)Oc2c(sc3c(C)cccc23)C1c1ccc(F)cc1 (centres undefined) | 13.2 | 29.5
44 | NC(N)=N/N=C(\N=Nc1ccccc1)c1ccc(Cl)cc1 | 3.18 | 12
45 | Cc1cc(NCCCCNc2ccnc3cc(Cl)ccc23)nc(Nc2ccc(C(=O)N3CCCCC3)cc2)n1 | 2.11 | 4.13
46 | Cc1c2c(C(N)=O)nccc2c(C)c2c1c1ccccc1n2Cc1ccccc1 |  | 35.5
